In patent US9961848B2, “Soybean event 127 and methods related thereto” (EMPRESA BRASILEIRA DE PESQUISA AGROPECUARIA—EMBRAPA, priority 2009, dated 2018):

What was measured:
Assay type in all cases: in vivo
[1] = tested on: IPOGR = Ipomoea grandifolia; assay: Field weed control, burn down application; conditions: burn down 5 days before planting, g ai/ha Glyphosate 1080, Imazapic 70, Imazapic + imazapyr 70
Excerpt: (§3) All the procedures from planting to harvest were the same for all three locations. The herbicides were applied at burn down five days before the soybean planting.
(§4) A completely randomized block design with three replications was used.
(§5) Imidazolinone-tolerant soybean derived from event 127 was planted 5 cm deep at population of 380,000 seeds/ha in 50 cm row spacing. The imidazolinones herbicides were applied with a nonionic adjuvant, Dash, at 0.25% v/v. A CO^2 backpack sprayer with 80015 low pressure nozzles delivering 170 l/ha at 190 kpa was used for all herbicide applications (Table 18).
(§6) Crop injury was assessed 15 and 30 days after planting (DAP) based on a 0 to 100 scale where 0 is no injury and 100 is crop death. Herbicide efficacy was assessed at 15, 30 and 60 DAP based on a 0 to 100 scale, where 0 is no control and 100 is total control.

[2] = tested on: glyphosate resistant soybean; assay: Greenhouse injury rate, postemergence application; conditions: 14 DAT
Method: (§1) Greenhouse studies were conducted to determine whether imidazolinone herbicides could be used in the control of undesired glyphosate tolerant weeds and crops growing in a cultivated area. […] Plants were maintained in a greenhouse with overhead watering.
(§2) Postemergence sprays were conducted at the 2-true leaf stage for corn and soybean and at the 9-true leaf stage for horseweed. […] The percent overall injury rate was visually determined 14 days after treatment (DAT) and 25 days after treatment (DAT). […] The results of the postemergence tests are summarized in Table 20 and the results of the pre-emergence study are summarized in Table 21. Results are provided as averages of the 5 individual plants.

[3] = tested on: glyphosate resistant corn; assay: Greenhouse injury rate, postemergence application; conditions: 14 DAT
Method: as §1, §2

[4] = tested on: glyphosate resistant horseweed; assay: Greenhouse injury rate, postemergence application
Method: as §1, §2

[5] = tested on: COMBE = Commelina benghalensis; assay: Field weed control, burn down application; conditions: burn down 5 days before planting, g ai/ha Glyphosate 1080, Imazapic 70, Imazapic + imazapyr 70
Excerpt: as §3, §4, §5, §6

[6] = tested on: EPHHL = Euphorbia heterophylla; assay: Field weed control, burn down application; conditions: burn down 5 days before planting, g ai/ha Glyphosate 1080, Imazapic 70, Imazapic + imazapyr 70
Excerpt: as §3, §4, §5, §6

[7] = tested on: BRAPL = Brachiaria plantaginea; assay: Field weed control, burn down application; conditions: burn down 5 days before planting, g ai/ha Glyphosate 1080, Imazapic 70, Imazapic + imazapyr 70
Excerpt: as §3, §4, §5, §6

[8] = tested on: GASPA = Galinsoga parviflora; assay: Field weed control, burn down application; conditions: burn down 5 days before planting, g ai/ha Glyphosate 1080, Imazapic 70, Imazapic + imazapyr 70
Excerpt: as §3, §4, §5, §6

BIDPI = Bidens pilosa = assay: Field weed control, burn down application; conditions: burn down 5 days before planting, g ai/ha Glyphosate 1080, Imazapic 70, Imazapic + imazapyr 70
Excerpt: as §3, §4, §5, §6

[9] = tested on: IPOGR = Ipomoea grandifolia; assay: Field weed control, early post-emergence application; conditions: gai/ha Imazapyr 72, Imazapyr + imazapic 70, Glyphosate 540
[10] = tested on: EPHHL = Euphorbia heterophylla; assay: as above; conditions: gai/ha Imazapyr 72, Imazapyr + imazapic 70, Glyphosate 540
[11] = tested on: glyphosate resistant soybean; assay: Greenhouse injury rate, preemergence application; conditions: 14 DAT
Method: as §1, §2

[12] = tested on: glyphosate resistant corn; assay: Greenhouse injury rate, preemergence application; conditions: 14 DAT
Method: as §1, §2

[13] = tested on: glyphosate resistant horseweed; assay: Greenhouse injury rate, preemergence application; conditions: 25 DAT
Method: as §1, §2

[14] = tested on: RCHBR = Richardia brasiliensis; assay: Field weed control, early post-emergence application; conditions: gai/ha Imazapyr 72, Imazapyr + imazapic 70, Glyphosate 540
[15] = tested on: DIGHO = Digitaria horizontalis; assay: Field weed control, burn down application; conditions: burn down 5 days before planting, g ai/ha Glyphosate 1080, Imazapic 70, Imazapic + imazapyr 70
Excerpt: as §3, §4, §5, §6

[16] = tested on: COMBE = Commelina benghalensis; assay: Field weed control, early post-emergence application; conditions: gai/ha Imazapyr 72, Imazapyr + imazapic 70, Glyphosate 540
SIDRH = Sida rombifolia = assay: as above; conditions: gai/ha Imazapyr 72, Imazapyr + imazapic 70, Glyphosate 540
[17] = tested on: BOILF = Spermacoce latifolia; assay: as above; conditions: gai/ha Imazapyr 72, Imazapyr + imazapic 70, Glyphosate 540
CYPRO = Cyperus rotundus [18] = assay: Field weed control, burn down application; conditions: burn down 5 days before planting, g ai/ha Glyphosate 1080, Imazapic 70, Imazapic + imazapyr 70
Excerpt: as §3, §4, §5, §6

CYPRO = Cyperus rotundus [19] = assay: Field weed control, early post-emergence application; conditions: gai/ha Imazapyr 72, Imazapyr + imazapic 70, Glyphosate 540

## O=C(O)CNCP(=O)(O)O [Glyphosate, glyphosate]
[1]; 30 DAT
  Efficacy (%): 23%
[1]; 60 DAT
  Efficacy (%): 15%
[2]; 774 g ae/ha
  Average Overall Injury (%): 1%
[3]; 774 g ae/ha
  Average Overall Injury (%): 1%
[4]; 14 DAT, 774 g ae/ha
  Average Overall Injury (%): 34%
[4]; 25 DAT, 774 g ae/ha
  Average Overall Injury (%): 16%
[5]; 30 DAT
  Efficacy (%): 38%
[5]; 60 DAT
  Efficacy (%): 22%
[6]; 30 DAT
  Efficacy (%): 15%
[6]; 60 DAT
  Efficacy (%): 7%
[7]; 60 DAT
  Efficacy (%): 25%
[8]; 30 DAT
  Efficacy (%): 19%
[8]; 60 DAT
  Efficacy (%): 12%
BIDPI = Bidens pilosa; 30 DAT
  Efficacy (%): 25%
BIDPI = Bidens pilosa; 60 DAT
  Efficacy (%): 21%
[9]; 15 DAT
  Efficacy: 90%
[9]; 30 DAT
  Efficacy: 87%
[9]; 60 DAT
  Efficacy: 73%
[10]; 15 DAT
  Efficacy: 85%
[10]; 30 DAT
  Efficacy: 77%
[10]; 60 DAT
  Efficacy: 72%
[11]; 774 g ae/ha
  Average Overall Injury (%): 0%
[12]; 774 g ae/ha
  Average Overall Injury (%): 0%
[13]; 774 g ae/ha
  Average Overall Injury (%): 0%
[14]; 15 DAT
  Efficacy: 78%
[14]; 30 DAT
  Efficacy: 57%
[15]; 30 DAT
  Efficacy (%): 60%
[15]; 60 DAT
  Efficacy (%): 41%
[16]; 15 DAT
  Efficacy: 70%
[16]; 30 DAT
  Efficacy: 61%
[16]; 60 DAT
  Efficacy: 50%
SIDRH = Sida rombifolia; 15 DAT
  Efficacy: 82%
SIDRH = Sida rombifolia; 30 DAT
  Efficacy: 77%
SIDRH = Sida rombifolia; 60 DAT
  Efficacy: 70%
[17]; 15 DAT
  Efficacy: 82%
[17]; 30 DAT
  Efficacy: 75%
[17]; 60 DAT
  Efficacy: 68%

## Cc1cnc(C2=NC(=O)C(C)(C(C)C)N2)c(C(=O)O)c1 (stereo not drawn) [Imazapic, imazapic]
[1]; 30 DAT
  Efficacy (%): 75%
[1]; 60 DAT
  Efficacy (%): 73%
[2]; 20 g ai/ha
  Average Overall Injury (%): 35%
[2]; 40 g ai/ha
  Average Overall Injury (%): 61%
[2]; 80 g ai/ha
  Average Overall Injury (%): 71%
[2]; 160 g ai/ha
  Average Overall Injury (%): 87%
[2]; 240 g ai/ha
  Average Overall Injury (%): 96%
[3]; 20 g ai/ha
  Average Overall Injury (%): 83%
[3]; 40 g ai/ha
  Average Overall Injury (%): 87%
[3]; 80 g ai/ha
  Average Overall Injury (%): 93%
[3]; 160 g ai/ha
  Average Overall Injury (%): 99%
[3]; 240 g ai/ha
  Average Overall Injury (%): 99%
[4]; 14 DAT, 20 g ai/ha
  Average Overall Injury (%): 56%
[4]; 14 DAT, 40 g ai/ha
  Average Overall Injury (%): 59%
[4]; 14 DAT, 80 g ai/ha
  Average Overall Injury (%): 80%
[4]; 14 DAT, 160 g ai/ha
  Average Overall Injury (%): 92%
[4]; 14 DAT, 240 g ai/ha
  Average Overall Injury (%): 94%
[4]; 25 DAT, 20 g ai/ha
  Average Overall Injury (%): 27%
[4]; 25 DAT, 40 g ai/ha
  Average Overall Injury (%): 28%
[4]; 25 DAT, 80 g ai/ha
  Average Overall Injury (%): 69%
[4]; 25 DAT, 160 g ai/ha
  Average Overall Injury (%): 77%
[4]; 25 DAT, 240 g ai/ha
  Average Overall Injury (%): 88%
[5]; 30 DAT
  Efficacy (%): 75%
[5]; 60 DAT
  Efficacy (%): 64%
[6]; 30 DAT
  Efficacy (%): 98%
[6]; 60 DAT
  Efficacy (%): 86%
[7]; 30 DAT
  Efficacy (%): 85%
[7]; 60 DAT
  Efficacy (%): 79%
CYPRO = Cyperus rotundus [18]; 30 DAT
  Efficacy (%): 88%
CYPRO = Cyperus rotundus [18]; 60 DAT
  Efficacy (%): 76%
[8]; 30 DAT
  Efficacy (%): 84%
[8]; 60 DAT
  Efficacy (%): 78%
BIDPI = Bidens pilosa; 30 DAT
  Efficacy (%): 79%
BIDPI = Bidens pilosa; 60 DAT
  Efficacy (%): 73%
[11]; 20 g ai/ha
  Average Overall Injury (%): 12%
[11]; 40 g ai/ha
  Average Overall Injury (%): 39%
[11]; 80 g ai/ha
  Average Overall Injury (%): 60%
[11]; 160 g ai/ha
  Average Overall Injury (%): 70%
[11]; 240 g ai/ha
  Average Overall Injury (%): 81%
[12]; 20 g ai/ha
  Average Overall Injury (%): 32%
[12]; 40 g ai/ha
  Average Overall Injury (%): 38%
[12]; 80 g ai/ha
  Average Overall Injury (%): 67%
[12]; 160 g ai/ha
  Average Overall Injury (%): 86%
[12]; 240 g ai/ha
  Average Overall Injury (%): 90%
[13]; 20 g ai/ha
  Average Overall Injury (%): 65%
[13]; 40 g ai/ha
  Average Overall Injury (%): 90%
[13]; 80 g ai/ha
  Average Overall Injury (%): 99%
[13]; 160 g ai/ha
  Average Overall Injury (%): 99%
[13]; 240 g ai/ha
  Average Overall Injury (%): 99%
[15]; 30 DAT
  Efficacy (%): 95%
[15]; 60 DAT
  Efficacy (%): 86%

## CC(C)C1(C)N=C(c2ncccc2C(=O)O)NC1=O (stereo not drawn) [imazapyr]
CYPRO = Cyperus rotundus [19]; 15 DAT
  Efficacy: 95%
CYPRO = Cyperus rotundus [19]; 30 DAT
  Efficacy: 87%
CYPRO = Cyperus rotundus [19]; 60 DAT
  Efficacy: 81%
[2]; 20 g ai/ha
  Average Overall Injury (%): 75%
[2]; 40 g ai/ha
  Average Overall Injury (%): 96%
[2]; 80 g ai/ha
  Average Overall Injury (%): 97%
[2]; 120 g ai/ha
  Average Overall Injury (%): 98%
[2]; 240 g ai/ha
  Average Overall Injury (%): 99%
[3]; 20 g ai/ha
  Average Overall Injury (%): 96%
[3]; 40 g ai/ha
  Average Overall Injury (%): 98%
[3]; 80 g ai/ha
  Average Overall Injury (%): 99%
[3]; 120 g ai/ha
  Average Overall Injury (%): 100%
[3]; 240 g ai/ha
  Average Overall Injury (%): 100%
[4]; 14 DAT, 20 g ai/ha
  Average Overall Injury (%): 70%
[4]; 14 DAT, 40 g ai/ha
  Average Overall Injury (%): 79%
[4]; 14 DAT, 80 g ai/ha
  Average Overall Injury (%): 90%
[4]; 14 DAT, 120 g ai/ha
  Average Overall Injury (%): 96%
[4]; 14 DAT, 240 g ai/ha
  Average Overall Injury (%): 97%
[4]; 25 DAT, 20 g ai/ha
  Average Overall Injury (%): 44%
[4]; 25 DAT, 40 g ai/ha
  Average Overall Injury (%): 73%
[4]; 25 DAT, 80 g ai/ha
  Average Overall Injury (%): 97%
[4]; 25 DAT, 120 g ai/ha
  Average Overall Injury (%): 99%
[4]; 25 DAT, 240 g ai/ha
  Average Overall Injury (%): 99%
[9]; 15 DAT
  Efficacy: 96%
[9]; 30 DAT
  Efficacy: 91%
[9]; 60 DAT
  Efficacy: 85%
[10]; 15 DAT
  Efficacy: 92%
[10]; 30 DAT
  Efficacy: 85%
[10]; 60 DAT
  Efficacy: 83%
[11]; 20 g ai/ha
  Average Overall Injury (%): 41%
[11]; 40 g ai/ha
  Average Overall Injury (%): 43%
[11]; 80 g ai/ha
  Average Overall Injury (%): 66%
[11]; 120 g ai/ha
  Average Overall Injury (%): 83%
[11]; 240 g ai/ha
  Average Overall Injury (%): 87%
[12]; 20 g ai/ha
  Average Overall Injury (%): 37%
[12]; 40 g ai/ha
  Average Overall Injury (%): 47%
[12]; 80 g ai/ha
  Average Overall Injury (%): 65%
[12]; 120 g ai/ha
  Average Overall Injury (%): 81%
[12]; 240 g ai/ha
  Average Overall Injury (%): 91%
[13]; 20 g ai/ha
  Average Overall Injury (%): 46%
[13]; 40 g ai/ha
  Average Overall Injury (%): 63%
[13]; 80 g ai/ha
  Average Overall Injury (%): 84%
[13]; 120 g ai/ha
  Average Overall Injury (%): 96%
[13]; 240 g ai/ha
  Average Overall Injury (%): 88%
[14]; 15 DAT
  Efficacy: 86%
[14]; 30 DAT
  Efficacy: 83%
[14]; 60 DAT
  Efficacy: 77%
[16]; 15 DAT
  Efficacy: 93%
[16]; 30 DAT
  Efficacy: 87%
[16]; 60 DAT
  Efficacy: 80%
SIDRH = Sida rombifolia; 15 DAT
  Efficacy: 94%
SIDRH = Sida rombifolia; 30 DAT
  Efficacy: 87%
SIDRH = Sida rombifolia; 60 DAT
  Efficacy: 81%
[17]; 15 DAT
  Efficacy: 88%
[17]; 30 DAT
  Efficacy: 83%
[17]; 60 DAT
  Efficacy: 75%
